Measurements as given in patent US12552796B2, “EED inhibitor, and preparation method therefor and use thereof” (SHANGHAITECH UNIVERSITY, priority 2019, dated 2026).

Legend:
[1] = test system: cellular H3K27 methylation; assay: Cellular H3K27 methylation assay (Western blot of H3K27me3 in HeLa cells); assay type: cell-based; conditions: Homo sapiens, 72 h; HeLa cells, 3 days, H3K27me3 level by Western blot; read-out: PD IC50
WSU-DLCL2 cells = assay: Cell proliferation assay, WSU-DLCL2; assay type: cell-based; conditions: Homo sapiens, WSUDLCL2; WSU-DLCL2 cells, cultured to the 9th day; read-out: Anti-proliferation IC50
Procedure: (§1) Human B-cell non-Hodgkin's lymphoma cells WSU-DLCL2, Karpas422 and Pfeiffer were cultured in cell culture flasks in a sterile incubator with 95% relative humidity and 5% CO2 at 37° C. The medium was RPMI-1640 (Gibco, product No. 31800022) containing 15% fetal bovine serum (FBS, Gibco, product No. 10099141) and 0.1% penicillin/streptomycin solution (P/S). In order to assay the effects of compounds on cell proliferation, cells in exponential growth phase were seeded into a 12-well plate (Nunc, product No. 150628) with 1 mL of medium per well, wherein WSU-DLCL2 and Karpas422 were seeded at a density of 1×10^5 cells/well, and Pfeiffer was seeded at a density of 2×10^5 cells/well. At the same time, different concentrations of compounds were added to the wells that had seeded with cells (6 concentrations were set for each compound at 3-fold serial dilution), and the final concentration of DMSO was 0.1%. After that, the number of viable cells was determined by Vi-CELL (Beckman Coulter) for WSU-DLCL2 and Pfeiffer every 3 days, and for Karpas422 on days 4, 7, and 11, respectively. The cells counted each time were seeded into a new 12-well plate at the same density, and supplemented with fresh medium to 1 mL. Different concentrations of compounds were added at the same time. WSU-DLCL2 and Pfeiffer were cultured to the 9th day, and Karpas422 was cultured to the 14th day. Cell data were collected uniformly, and analyzed with GraphPad prisim5. Dose curves were fitted, and IC50 values of the assay compounds were obtained.

Karpas422 cells = assay: Cell proliferation assay, Karpas422; assay type: cell-based; conditions: Homo sapiens, KARPAS-422; Karpas422 cells, cultured to the 14th day; read-out: Anti-proliferation IC50
Procedure: as §1

Pfeiffer cells = assay: Cell proliferation assay, Pfeiffer; assay type: cell-based; conditions: Homo sapiens, cultured to the 9th day, read-out: Anti-proliferation IC50
Procedure: as §1

[2] = Pharmacokinetic study in rats; assay type: in vivo, SD rats; conditions: rat; for AUC(0-inf) / Cmax / Tmax / clearance / half-life / MRT inf: male, SD, plasma; for MRT inf: read-out: MRT0-∞
Procedure: Six SPF SD rats, male, weighing 180-220 g, were randomly divided into 2 groups with 3 rats in each group. The compounds of the present disclosure were administered by oral gavage (PO) and intravenous injection (IV), respectively, and the assay compounds were formulated with a vehicle (5% DMSO+10% Solutol+85% pH 4.65 Acetate buffer).
Dosage: 1 mg/kg for intravenous injection and 2 mg/kg for oral administration.
(§2) Dosing volume: 5 mL/kg for intravenous injection and 10 mL/kg for oral administration.
(§3) The oral administration group was fasted overnight (10-14 h) before the assay, and drank water freely. After 4 hours of administration, they were fed uniformly. They were weighed before administration, and the dosage was calculated according to the body weight.
Intravenous administration: 0.083, 0.25, 0.5, 1, 2, 4, 6, 8, 10 and 24 h after administration;
Oral gavage administration: 0.25, 0.5, 1, 2, 4, 6, 8, 10, 12 and 24 h after administration;
(§4) Blood was collected from the jugular vein of rats at the above set time points, about 0.2 mL each time. The blood was anticoagulated with heparin sodium, placed on ice after collection, and centrifuged within 1 hour to separate the plasma (centrifugation conditions: 6800 g, 6 minutes, 2-8° C.). Plasma samples were stored in a −80° C. freezer prior to analysis.
The concentration of each compound in rat plasma was determined by LC/MS/MS method.
(§5) Through the plasma drug concentration data at different time points, pharmacokinetic parameters were calculated using Phoenix WinNonlin 7.0, thereby providing parameters such as AUC0-t, AUC0-∞, MRT0-∞, Cmax, Tmax, and T1/2 and mean and standard deviation thereof.

[3] = Pharmacokinetic study in canine; assay type: in vivo, Beagle dogs; conditions: Beagle dog; for AUC(0-inf) / Cmax / Tmax / clearance / half-life / MRT inf: male, plasma; for MRT inf: read-out: MRT0-∞
Procedure: Six ordinary Beagle dogs, male, weighing 10-12 kg, were randomly divided into 2 groups with 3 dogs in each group. The compounds of the present disclosure were administered by oral gavage (PO) and intravenous injection (IV), respectively, and the assay compounds were formulated with the corresponding vehicles.
Dosage: 1 mg/kg for intravenous injection and 5 mg/kg for oral administration.
as §2
as §3, with “weight. 2. Blood collection time point and sample processing:” for “weight.”
Intravenous administration: 0.083, 0.25, 0.5, 1, 2, 4, 8, 12 and 24 h after administration;
Oral gavage administration: 0.25, 0.5, 1, 2, 4, 6, 8, 12 and 24 h after administration;
as §4, with “veins” for “jugular vein”, “extremities,” for “rats at the above set time points,”, “0.5-1” for “0.2”
The concentration of each compound in canine plasma was determined by LC/MS/MS method.
as §5

[4] = test system: Karpas 422 human B-cell lymphoma cells; assay: Mouse Karpas422 CDX model, tumor growth; assay type: in vivo, balb/c nude mice; conditions: Karpas422 CDX mice; for tumor growth inhibition (TGI %), Day 11 after administration / tumor growth inhibition (TGI %), Day 21 after administration: intragastric; for effect on tumor growth (FIG. 1): different dosages
Procedure: Female balb/c nude mice aged 6-8 weeks were selected and housed under SPF conditions (i.e., 20-22° C.; 40-70% relative humidity) in individual ventilated cages at constant temperature and humidity. There were 5 or fewer animals in each cage. Animals had access to dry pelleted food sterilized by irradiation and sterile drinking water. Karpas 422 human B-cell lymphoma cells were cultured in RPMI-1640 (Gibco, product No. 31800022) containing 15% fetal bovine serum (FBS, Gibco, product No. 10099141) and 0.1% penicillin/streptomycin solution (P/S). The cells were cultured in a sterile incubator at a temperature of 37° C., a relative humidity of 95%, and 5% CO2. Karpas 422 cells cultured in vitro were maintained at a concentration between 0.5-2×10^6 cells/mL cells in suspension culture and passaged at a 1:3 dilution every 2-4 days. To establish the xenograft model, cells were collected, resuspended in PBS, mixed 1:1 by volume with Matrigel (BD) at a concentration of 5×10^7 cells/mL, and then injected subcutaneously into the right side of balb/c nude mice (Vital River) with 5×10^6 cells per animal. When tumors grew to about 150 mm^3, mice were divided into groups with 6 mice in each group. The mice were administered intragastrically, and the tumor size and mouse body weight were measured twice a week. The two largest diameters of the transplanted tumor, width (W) and length (L), were manually measured with a vernier caliper, and the tumor volume was estimated using the formula: 0.5×L×W^2. After the assay, the mice were euthanized.
The assay compounds were prepared as a suspension in pure water containing 0.5% HPMC+0.5% Tween 80 as a solvent. The dosing volume was 10 mL/kg.
In this study, changes in mouse tumor volume and relative changes in mouse body weight were assayed, and the results were shown in FIGS. 1 and 2.

Compound	IC50 [1] [nM]	IC50 (WSU-DLCL2 cells) [nM]	IC50 (Karpas422 cells) [nM]	IC50 (Pfeiffer cells) [nM]	AUC(0-inf) ([2]; IV, 1 mg/kg) [ng·h/mL]	Cmax ([2]; IV, 1 mg/kg) [ng/mL]	Tmax ([2]; IV, 1 mg/kg) [h]	clearance ([2]; IV, 1 mg/kg) [mL/min/kg]	half-life ([2]; IV, 1 mg/kg) [h]	MRT inf ([2]; IV, 1 mg/kg) [h]	AUC(0-inf) ([2]; PO, 2 mg/kg) [ng·h/mL]	Cmax ([2]; PO, 2 mg/kg) [ng/mL]	Tmax ([2]; PO, 2 mg/kg) [h]	half-life ([2]; PO, 2 mg/kg) [h]	MRT inf ([2]; PO, 2 mg/kg) [h]	F ([2]; PO, 2 mg/kg) [%]	F ([3]; PO, 5 mg/kg) [%]	AUC(0-inf) ([3]; IV, 1 mg/kg) [ng·h/mL]	Cmax ([3]; IV, 1 mg/kg) [ng/mL]	Tmax ([3]; IV, 1 mg/kg) [h]	also measured
Fc1ccc2c(c1CNc1ncc(OC3CCOCC3)c3nncn13)CCO2 [HJM-016]	34.7	86.4	74.9	55.7	2060	932	0.08	8.24	2.33	2.94	3900	482	4	2.8	5.58	98.86	62.50	8840	1220	0.08	clearance ([3]; IV, 1 mg/kg): 1.92 mL/min/kg; half-life ([3]; IV, 1 mg/kg): 5.87 h; MRT inf ([3]; IV, 1 mg/kg): 8.39 h; AUC(0-inf) ([3]; PO, 5 mg/kg): 27200 ng·h/mL; Cmax ([3]; PO, 5 mg/kg): 2900 ng/mL; Tmax ([3]; PO, 5 mg/kg): 2 h; half-life ([3]; PO, 5 mg/kg): 5.18 h; MRT inf ([3]; PO, 5 mg/kg): 7.97 h; tumor growth inhibition (TGI %), Day 11 after administration ([4]; 30 mg/kg): 8.5%; tumor growth inhibition (TGI %), Day 21 after administration ([4]; 30 mg/kg): 56.1%; tumor growth inhibition (TGI %), Day 11 after administration ([4]; 100 mg/kg): 52.3%; tumor growth inhibition (TGI %), Day 21 after administration ([4]; 100 mg/kg): 105.39%; effect on tumor growth (FIG. 1) [4]: complete tumor disappearance
CN(C(=O)C1CC1)c1cnc(NCc2c(F)ccc3c2CCO3)n2cnnc12 [HJM-045]	13	9.2	13.5	10.5	639	794	0.08	26.4	1.17	1.06	628	119	2.83	1.46	3.51	48.40	90.95	4500	1150	0.08	clearance ([3]; IV, 1 mg/kg): 3.7 mL/min/kg; half-life ([3]; IV, 1 mg/kg): 4.13 h; MRT inf ([3]; IV, 1 mg/kg): 5.35 h; AUC(0-inf) ([3]; PO, 5 mg/kg): 20700 ng·h/mL; Cmax ([3]; PO, 5 mg/kg): 3700 ng/mL; Tmax ([3]; PO, 5 mg/kg): 0.5 h; half-life ([3]; PO, 5 mg/kg): 4.29 h; MRT inf ([3]; PO, 5 mg/kg): 5.75 h; tumor growth inhibition (TGI %), Day 11 after administration ([4]; 30 mg/kg): 0.25%; tumor growth inhibition (TGI %), Day 21 after administration ([4]; 30 mg/kg): 60.06%; tumor growth inhibition (TGI %), Day 11 after administration ([4]; 100 mg/kg): 10.7%; tumor growth inhibition (TGI %), Day 21 after administration ([4]; 100 mg/kg): 81.43%; effect on tumor growth (FIG. 1) [4]: complete tumor disappearance
